The assay has as its system HT-29. The assay can be described thus: Antiproliferative activity against human HT-29 cells. The format is functional, cell-based.

For orientation: IC50 means the concentration at which inhibition is half-maximal. A low value points to higher potency.

For `C/C=C1/NC(=O)[C@H](CC(N)=O)NC(=O)/C(=C\C)NC(=O)[C@H](C(C)C)NC(=O)[C@H](O)[C@@H]([C@@H](C)CCCCCCCC)NC(=O)[C@@H]2CCCN2C(=O)[C@H](CC(N)=O)N(C)C(=O)[C@H]([C@@H](C)O)NC(=O)[C@@H](C)NC(=O)[C@H](CC(N)=O)NC1=O` [MINUTISSAMIDE A], the IC50 worked out at 2 µM.

`C/C=C1/NC(=O)[C@H](CC(N)=O)NC(=O)/C(=C\C)NC(=O)[C@H](C(C)C)NC(=O)[C@H](O)[C@@H]([C@@H](C)CCCCCCCCCl)NC(=O)[C@@H]2CCCN2C(=O)[C@H](CC(N)=O)N(C)C(=O)[C@H]([C@@H](C)O)NC(=O)[C@@H](C)NC(=O)[C@H](CC(N)=O)NC1=O` [MINUTISSAMIDE B] gave an IC50 of 20 µM.

(Values after ChEMBL document CHEMBL1811831, “Minutissamides A-D, antiproliferative cyclic decapeptides from the cultured cyanobacterium Anabaena minutissima” (J Nat Prod, 2011).)
